Reference: patent US20120214760A1, “TREATMENT OF URINARY TRACT INFECTIONS WITH ANTIBACTERIAL AMINOGLYCOSIDE COMPOUNDS” (Achaogen, Inc., priority 2009, published 2012)
Converted amounts (≈) assume the structure as drawn.

What was measured:
Assay type in all cases: cell-based
[1] = system: E. coli ATCC 25922 (AECO001); experiment: MIC, CLSI broth microdilution; conditions: for MIC: Escherichia coli, ATCC25922, read-out: MIC AECO001, Table 1, AECO001 is ATCC25922; for MIC AECO001: Table 3, ATCC25922
Method in brief: (§1)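 Broth microdilution per CLSI M7-A7, with serial two-fold compound dilutions in Mueller Hinton Broth mixed 1:1 with inoculum. Colonies from a previous-day agar plate were suspended in saline to a final 5×10^5 CFU/mL. Plates were incubated 20 hours at 35° C. in ambient air.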

[2] = system: P. aeruginosa ATCC 27853 (APAE001); experiment: MIC, CLSI broth microdilution; conditions: Pseudomonas aeruginosa, ATCC27853, read-out: MIC APAE001, Table 1; APAE001 is ATCC27853
Method in brief: as §1

[3] = system: S. marcescens ASMA003, ANT(2″) + AAC(6′); experiment: MIC, aminoglycoside resistant strain; conditions: Table 3
Description: (§2) Minimum inhibitory concentrations (MIC) were determined by reference Clinical and Laboratory Standards Institute (CLSI) broth microdilution methods per M7-A7 [2006]. Quality control ranges utilizing E. coli ATCC 25922, P. aeruginosa ATCC 27853 and S. aureus ATCC 29213, and interpretive criteria for comparator agents were as published in CLSI M100-S17 [2007]. Briefly, serial two-fold dilutions of the test compounds were prepared at 2× concentration in Mueller Hinton Broth. The compound dilutions were mixed in 96-well assay plates in a 1:1 ratio with bacterial inoculum. The inoculum was prepared by suspension of a colony from an agar plate that was prepared the previous day. Bacteria were suspended in sterile saline and added to each assay plate to obtain a final concentration of 5×10^5 CFU/mL. The plates were incubated at 35° C. for 20 hours in ambient air.
(§3) These MIC assays were conducted following the same protocol as set forth in Example 110. As shown, substituted sisomicin derivatives with groups other than methyl at the 6′-position have improved activity against strains expressing the AAC6′-modifying enzymes.

[4] = system: A. calcoaceticus AACA005, AAC(6′)-I; experiment: MIC, aminoglycoside resistant strain; conditions: Table 3
Description: as §2, §3

[5] = system: E. coli AECO040, AAC(6′)-I; experiment: MIC, aminoglycoside resistant strain; conditions: Table 3
Description: as §2, §3

S. saprophyticus (19) = experiment: MIC, urinary tract infection isolates; conditions: S. saprophyticus
Description: as §2
(§4) In order to determine the activity of representative antibacterial aminoglycoside compounds against bacterial species that commonly cause complicated urinary tract infections worldwide, isolates were collected from 47 medical centers in the U.S. and Europe (10 countries) from urine or blood culture with the source of bacteremia documented as a urinary tract infection. Strains were susceptibility tested against Example 1, gentamicin, amikacin and 10 comparators by CLSI broth microdilution. These MIC assays were conducted following the same protocol as set forth in Example 110. Pathogens (169 in total) included E. coli, Klebsiella spp., Enterobacter spp., Citrobacter spp., P. mirabilis, M. Morganii, P. aeruginosa, S. aureus and S. saprophyticus.

S. aureus (23) = experiment: MIC, urinary tract infection isolates; conditions: S. aureus
Description: as §2, §4

Enterobacter spp. (16) = experiment: MIC, urinary tract infection isolates
Description: as §2, §4

Klebsiella spp. (21) = experiment: MIC, urinary tract infection isolates
Description: as §2, §4

Citrobacter spp. (15) = experiment: MIC, urinary tract infection isolates
Description: as §2, §4

E. coli (21) = experiment: MIC, urinary tract infection isolates
Description: as §2, §4

P. aeruginosa (19) = experiment: MIC, urinary tract infection isolates; conditions: P. aeruginosa
Description: as §2, §4

M. morganii (15) = experiment: MIC, urinary tract infection isolates
Description: as §2, §4

P. mirabilis (20) = experiment: MIC, urinary tract infection isolates
Description: as §2, §4

Pathogens (169 in total) = experiment: Susceptibility testing, all urinary tract infection isolates; conditions: all 169 isolates
Description: as §2, §4

SMILES: CNCC1=CC[C@@H](N)[C@@H](O[C@H]2[C@H](O)[C@@H](O[C@H]3OC[C@](C)(O)[C@H](NC)[C@H]3O)[C@H](NC(=O)C3(O)CNC3)C[C@@H]2N)O1 [Example 61]
- MIC [1]: < 1 µg/mL
- MIC AECO001 [1]: 1 µg/mL (≈ 1.78 µM)
- MIC [2]: 1 to 16 µg/mL (≈ 1.78 to 28.5 µM)
- MIC ASMA003 [3]: 4 µg/mL (≈ 7.13 µM)
- MIC AACA005 [4]: 2 µg/mL (≈ 3.57 µM)
- MIC AECO040 [5]: 16 µg/mL (≈ 28.5 µM)

SMILES: CN[C@@H]1C(O)[C@@H](O[C@@H]2[C@@H](O)[C@H](OC3OC(CN)=CC[C@H]3N)[C@@H](N)C[C@H]2NC(=O)[C@@H](O)CCN)OC[C@]1(C)O (some centres unmarked) [Mono-substituted Compound 6, reference compound]
- MIC AECO001 [1]: 0.5 µg/mL (≈ 0.911 µM)
- MIC ASMA003 [3]: 4 µg/mL (≈ 7.29 µM)
- MIC AACA005 [4]: 16 µg/mL (≈ 29.2 µM)
- MIC AECO040 [5]: 4 µg/mL (≈ 7.29 µM)

SMILES: CN[C@@H]1[C@@H](O)[C@@H](O[C@@H]2[C@@H](O)[C@H](O[C@H]3OC(CNCCO)=CC[C@H]3N)[C@@H](N)C[C@H]2NC(=O)[C@@H](O)CCN)OC[C@]1(C)O.O=S(=O)(O)O [ACHN-490]
- Cumulative % inhibited at ACHN-490 MIC (S. saprophyticus (19); at 0.5 μg/ml): 94.7%
- Cumulative % inhibited at ACHN-490 MIC (S. saprophyticus (19); at 1 μg/ml): 100.0%
- Cumulative % inhibited at ACHN-490 MIC (S. saprophyticus (19); at ≦0.25 μg/ml): 89.5%
- Cumulative % inhibited at ACHN-490 MIC (S. aureus (23); at 0.5 μg/ml): 13.0%
- Cumulative % inhibited at ACHN-490 MIC (S. aureus (23); at 1 μg/ml): 60.9%
- Cumulative % inhibited at ACHN-490 MIC (S. aureus (23); at 2 μg/ml): 95.7%
- Cumulative % inhibited at ACHN-490 MIC (S. aureus (23); at 4 μg/ml): 100.0%
- Cumulative % inhibited at ACHN-490 MIC (S. aureus (23); at ≦0.25 μg/ml): 0.0%
- Cumulative % inhibited at ACHN-490 MIC (Enterobacter spp. (16); at 0.5 μg/ml): 75.0%
- Cumulative % inhibited at ACHN-490 MIC (Enterobacter spp. (16); at 1 μg/ml): 100.0%
- Cumulative % inhibited at ACHN-490 MIC (Enterobacter spp. (16); at ≦0.25 μg/ml): 0.0%
- Cumulative % inhibited at ACHN-490 MIC (Klebsiella spp. (21); at 0.5 μg/ml): 95.2%
- Cumulative % inhibited at ACHN-490 MIC (Klebsiella spp. (21); at 1 μg/ml): 100.0%
- Cumulative % inhibited at ACHN-490 MIC (Klebsiella spp. (21); at ≦0.25 μg/ml): 19.0%
- Cumulative % inhibited at ACHN-490 MIC (Citrobacter spp. (15); at 0.5 μg/ml): 73.3%
- Cumulative % inhibited at ACHN-490 MIC (Citrobacter spp. (15); at 1 μg/ml): 86.7%
- Cumulative % inhibited at ACHN-490 MIC (Citrobacter spp. (15); at 2 μg/ml): 93.3%
- Cumulative % inhibited at ACHN-490 MIC (Citrobacter spp. (15); at 4 μg/ml): 100.0%
- Cumulative % inhibited at ACHN-490 MIC (Citrobacter spp. (15); at ≦0.25 μg/ml): 0.0%
- Cumulative % inhibited at ACHN-490 MIC (E. coli (21); at 0.5 μg/ml): 19.0%
- Cumulative % inhibited at ACHN-490 MIC (E. coli (21); at 1 μg/ml): 61.9%
- Cumulative % inhibited at ACHN-490 MIC (E. coli (21); at 2 μg/ml): 100.0%
- Cumulative % inhibited at ACHN-490 MIC (E. coli (21); at ≦0.25 μg/ml): 0.0%
- Cumulative % inhibited at ACHN-490 MIC (P. aeruginosa (19); at 0.5 μg/ml): 0.0%
- Cumulative % inhibited at ACHN-490 MIC (P. aeruginosa (19); at 1 μg/ml): 0.0%
- Cumulative % inhibited at ACHN-490 MIC (P. aeruginosa (19); at 2 μg/ml): 0.0%
- Cumulative % inhibited at ACHN-490 MIC (P. aeruginosa (19); at 4 μg/ml): 36.8%
- Cumulative % inhibited at ACHN-490 MIC (P. aeruginosa (19); at 8 μg/ml): 73.7%
- Cumulative % inhibited at ACHN-490 MIC (P. aeruginosa (19); at 16 μg/ml): 89.5%
- Cumulative % inhibited at ACHN-490 MIC (P. aeruginosa (19); at 32 μg/ml): 100.0%
- Cumulative % inhibited at ACHN-490 MIC (P. aeruginosa (19); at ≦0.25 μg/ml): 0.0%
- Cumulative % inhibited at ACHN-490 MIC (M. morganii (15); at 0.5 μg/ml): 0.0%
- Cumulative % inhibited at ACHN-490 MIC (M. morganii (15); at 1 μg/ml): 6.7%
- Cumulative % inhibited at ACHN-490 MIC (M. morganii (15); at 2 μg/ml): 60.0%
- Cumulative % inhibited at ACHN-490 MIC (M. morganii (15); at 4 μg/ml): 86.7%
- Cumulative % inhibited at ACHN-490 MIC (M. morganii (15); at 8 μg/ml): 100.0%
- Cumulative % inhibited at ACHN-490 MIC (M. morganii (15); at ≦0.25 μg/ml): 0.0%
- Cumulative % inhibited at ACHN-490 MIC (P. mirabilis (20); at 0.5 μg/ml): 0.0%
- Cumulative % inhibited at ACHN-490 MIC (P. mirabilis (20); at 1 μg/ml): 5.0%
- Cumulative % inhibited at ACHN-490 MIC (P. mirabilis (20); at 2 μg/ml): 45.0%
- Cumulative % inhibited at ACHN-490 MIC (P. mirabilis (20); at 4 μg/ml): 90.0%
- Cumulative % inhibited at ACHN-490 MIC (P. mirabilis (20); at 8 μg/ml): 95.0%
- Cumulative % inhibited at ACHN-490 MIC (P. mirabilis (20); at 16 μg/ml): 100.0%
- Cumulative % inhibited at ACHN-490 MIC (P. mirabilis (20); at ≦0.25 μg/ml): 0.0%

SMILES: CN[C@@H]1[C@@H](O)[C@@H](O[C@@H]2[C@@H](O)[C@H](O[C@H]3OC(CNCCCN)=CC[C@H]3N)[C@@H](N)C[C@H]2NC(=O)[C@@H](O)CCN)OC[C@]1(C)O [Example 48, 6′-(3-Amino-propyl)-1-(4-amino-2(S)-hydroxy-butyryl)-sisomicin]
- MIC [1]: < 1 µg/mL
- MIC AECO001 [1]: 1 µg/mL (≈ 1.65 µM)
- MIC [2]: 1 to 16 µg/mL (≈ 1.65 to 26.4 µM)
- MIC ASMA003 [3]: 2 µg/mL (≈ 3.3 µM)
- MIC AACA005 [4]: 2 µg/mL (≈ 3.3 µM)
- MIC AECO040 [5]: 0.5 µg/mL (≈ 0.825 µM)

SMILES: NCC[C@H](O)C(=O)N[C@@H]1C[C@H](N)[C@@H](O[C@H]2O[C@H](CN)[C@@H](O)[C@H](O)[C@H]2O)[C@H](O)[C@H]1O[C@H]1O[C@H](CO)[C@@H](O)[C@H](N)[C@H]1O [Amikacin, amikacin, reference compound]
- Overall susceptibility rate (Pathogens (169 in total)): 94.1%

SMILES: CN[C@@H]1[C@@H](O)[C@@H](O[C@@H]2C(O)[C@H](O[C@H]3OC(CNCC4CCNCC4)=CC[C@H]3N)[C@@H](N)C[C@H]2N)OC[C@]1(C)O (some centres unmarked) [Mono-substituted Compound 3, reference compound]
- MIC AECO001 [1]: 0.5 µg/mL (≈ 0.918 µM)
- MIC ASMA003 [3]: 1 µg/mL (≈ 1.84 µM)
- MIC AACA005 [4]: 0.5 µg/mL (≈ 0.918 µM)
- MIC AECO040 [5]: 0.25 µg/mL (≈ 0.459 µM)
